pEC50, pIC50: −log10 of the molar value.
Assays:
[1] = target: T1, human recombinant 5-lipoxygenase (Homo sapiens, UniProt P09917); test: 5-Lipoxygenase enzyme assay; type: biochemical; settings: 70 μM arachidonic acid, pH 7.4, 10 minute incubation; read-out: IC50, inhibition of 5-Lipoxygenase
T1 construct: purchased Cayman 60402
T1 sequence (P09917 1-674): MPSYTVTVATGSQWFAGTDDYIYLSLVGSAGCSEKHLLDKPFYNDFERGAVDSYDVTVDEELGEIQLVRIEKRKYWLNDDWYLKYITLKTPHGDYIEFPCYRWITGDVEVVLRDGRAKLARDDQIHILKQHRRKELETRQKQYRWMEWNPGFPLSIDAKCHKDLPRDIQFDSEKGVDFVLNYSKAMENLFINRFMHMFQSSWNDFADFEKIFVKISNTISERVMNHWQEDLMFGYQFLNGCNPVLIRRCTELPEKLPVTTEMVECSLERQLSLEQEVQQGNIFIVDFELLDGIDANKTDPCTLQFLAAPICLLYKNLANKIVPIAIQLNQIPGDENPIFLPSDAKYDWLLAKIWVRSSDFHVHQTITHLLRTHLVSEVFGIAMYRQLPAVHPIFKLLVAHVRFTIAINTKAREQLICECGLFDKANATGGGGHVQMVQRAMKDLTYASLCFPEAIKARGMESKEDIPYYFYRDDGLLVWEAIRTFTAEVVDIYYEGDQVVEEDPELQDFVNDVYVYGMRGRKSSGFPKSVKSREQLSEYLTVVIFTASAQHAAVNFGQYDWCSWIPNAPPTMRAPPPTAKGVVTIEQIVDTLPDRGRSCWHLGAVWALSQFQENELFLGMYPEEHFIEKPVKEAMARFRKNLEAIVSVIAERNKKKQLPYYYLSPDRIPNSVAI
Source text: (§1) In vitro evaluation of the ability of a composition to inhibit the enzymes 5-lipoxygenase, 15-lipoxygenase, or 12/15 lipoxygenase as described in Walidge, N. B. et al Anal. Biochem., 231: 354-358 (1995) using a high throughput colorimetric method; as well as in vitro evaluation of inhibiting LTB4 is described in Examples.
This procedure was used for measuring the enzymatic activity of human recombinant 5-lipoxygenase using a colorimetric method based on the ferric oxidation of xylenol orange.
(§2) • 96 well flat bottom microfilter plates (VWR, Catalog #62402-933 9295) • Lipoxygenase screening assay buffer (Cayman, Catalog #760710) • Human recombinant 5-lipoxygenase (Cayman, Catalog #60402) • Arachidonic Acid (Sigma, Catalog #A3555) • Xylenol orange tetrasodium salt (Aldrich, Catalog #227854) • Iron (II) sulfate heptahydrate (Sigma, Catalog #F7002) • Sulfuric acid (95-98%) [18M]—Methanol Procedure
(§3) Human recombinant 5-lipoxygenase (Cayman Cat #60402) was used in this assay. The test compound and/or vehicle was added to 0.51-1 5-lipoxygenase in 50 mM Tris-HCl buffer, pH 7.4. The reaction was initiated by addition of 70 μM arachidonic acid in Tris-HCl buffer, pH 7.4, and terminated after a 10 minute incubation at room temperature by addition of FOX reagent (25 mM sulphuric acid, 100 μM xylenol orange, 100 μM iron (II) sulphate, methanol:water 9:1). The yellow color of acidified xylenol orange was converted to a blue color by the lipid hydroperoxide-mediated oxidation of Fe 2+ ions and the interaction of the resulting Fe 3+ ions with the dye. The complex was allowed to form during a 1 hour incubation at room temperature with shaking. Absorbance of the Fe 3+ complex was then measured at […] using a spectrophotometer.
(§4) Negative controls contained enzyme during the incubation step but substrate was not added until after the FOX reagent.
Compounds were screened at 5 concentrations in triplicate starting at 10 μM

[2] = target: T2, porcine leukocyte 12/15-lipoxygenase (Sus scrofa, UniProt P16469); test: 12/15-Lipoxygenase enzyme assay; type: biochemical; settings: 70 μM arachidonic acid, pH 7.4, 10 minute incubation; read-out: IC50, inhibition of 12/15-Lipoxygenase
T2 construct: purchased Cayman 60300
T2 sequence (P16469 1-663): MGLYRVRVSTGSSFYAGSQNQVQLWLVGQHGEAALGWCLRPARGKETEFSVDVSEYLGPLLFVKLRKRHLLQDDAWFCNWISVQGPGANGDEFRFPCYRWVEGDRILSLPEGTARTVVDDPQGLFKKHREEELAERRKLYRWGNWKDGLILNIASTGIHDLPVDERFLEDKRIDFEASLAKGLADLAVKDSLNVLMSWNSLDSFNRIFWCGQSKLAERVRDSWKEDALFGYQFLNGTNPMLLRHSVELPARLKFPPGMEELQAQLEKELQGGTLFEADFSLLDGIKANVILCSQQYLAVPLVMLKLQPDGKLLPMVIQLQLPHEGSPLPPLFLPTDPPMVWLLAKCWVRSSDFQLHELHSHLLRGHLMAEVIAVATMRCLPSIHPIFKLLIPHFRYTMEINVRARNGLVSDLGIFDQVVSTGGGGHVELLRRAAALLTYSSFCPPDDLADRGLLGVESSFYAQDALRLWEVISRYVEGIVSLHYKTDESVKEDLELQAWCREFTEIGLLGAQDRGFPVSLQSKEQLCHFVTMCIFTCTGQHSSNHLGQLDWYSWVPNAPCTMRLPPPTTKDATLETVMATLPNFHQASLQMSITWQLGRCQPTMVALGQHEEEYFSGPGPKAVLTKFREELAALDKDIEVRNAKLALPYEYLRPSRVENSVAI
Source text: as §1
This procedure was used for measuring the enzymatic activity of porcine leukocyte 12/15-lipoxygenase using a colorimetric method based on the ferric oxidation of xylenol orange.
as §2, with “Porcine leukocyte 12/15-lipoxygenase” for “Human recombinant 5-lipoxygenase”, “#60300)” for “#60402)”, “[18M] • Methanol” for “[18M]—Methanol”
as §3, with “Porcine Leukocyte 12/15-lipoxygenase” for “Human recombinant 5-lipoxygenase”, “#60300)” for “#60402)”, “Test” for “The test”, “1.3 U 12/15-lipoxygenase” for “0.51-1 5-lipoxygenase”
as §4
Compounds are screened at 5 concentrations in triplicate starting at 10 μM

[3] = test system: dopaminergic neuronal cell line; test: High glutamate-induced oxidative stress assay (HGOS); type: cell-based; settings: Mus musculus; 30 mM glutamate, 16 hrs; read-out: EC50, protection against HGOS cell injury and cell death
Source text: Protection against redox stress can be evaluated in cell culture using high glutamate induced oxidative stress (HGOS) in mouse dopaminergic cell lines. The cytotoxic effect of glutamate is not due to excitotoxicity, as this cell line is devoid of inotropic glutamate receptors. Rather, the glutamate-induced toxicity of dopaminergic cells is associated with an inhibition of cystine transport which subsequently leads to depletion of intracellular glutathione (GSH) levels (Murphy T. H., et al. Neuron 2, 1547-1558, 1989), activation of neuronal 12-lipoxygenase (Li, Y. et al., Neuron 19, 453-463, 1997), increased ROS production (Tan S. et al., J. Cell Biol. 141, 1423-1432, 1998) and elevated intracellular Cat^2+ (Li, Y. et al., see supra). Some molecules were measured for their ability to protect cells against glutamate-induced stress and the assay is detailed in Examples.
This procedure was used to induce high glutamate-induced oxidative stress (HGOS) in a dopaminergic neuronal cell line. Using this assay the potency and efficacy of test articles against HGOS neuronal cell injury and cell death was established in a high throughput manner.
• Dopaminergic neuronal cell lines • DMEM-No Glucose (Life Technologies Cat #11966-025) • L-glutamine (Life Technologies Cat #25030-081) • L-glutamic acid, monosodium salt (Sigma Cat #G5889) • D-glucose (Sigma Cat #G-6151) • 10×HBSS buffer (pH 7.4) (950 ml Pyrogen-free water, 2.44 g/L MgCl2.6H20, 3.73 g/L KCl, 59.58 g/L Hepes, 58.44 g/L NaCl, 1.36 g/L KH2PO4, 1.91 g/L CaCl2.2H2O and pH to […] with HCl) • Cell Tracker Green fluorescent dye (Molecular Probes, Cat #2925). Prepare a 5NM solution in pre-warmed HBSS just prior to use. • Sterile 96-well plates precoated with poly-D-lysine (Corning Catalog #3665) • 96-well deep well mother plate, DyNA Block 1000 (VWR Catalog #40002-008) Neuronal Cells
The cells were seeded into 96-well plates at a density of 2000 per well and left to grow for 72 hours in a 33° C. incubator with 5% CO2 in air atmosphere. The passage number of the cells for each assay experiment were no later than p11 in order to minimize experimental variation.
All compounds were dissolved in DMEM-No Glu containing 1 mM glucose, 30 mM glutamate and 1× Pen/Strep. DMEM-No Glu with 1 mM glucose and 1× P/S was used as the negative control, DMEM-No Glucose with 1 mM glucose, […] glutamate was used as a positive control and 100 NM Glutathione was added to the positive control as a standard. All of the procedures for this involving the making and dilution of compounds were performed using aseptic conditions and with minimal light.
The plates were removed from the incubator and examined under the microscope for morphological appearance and density. Using an aseptic technique and an 8-channel aspirator the media was carefully removed from the cells and replaced with 200 μI of 1×HBSS. This was done as quickly as possible to prevent the cells drying out. The plates were then placed in the humidified 37° C. incubators of the Biomek 2000 Side Loader. Four plates were washed at a time so as to minimize the time that the cells were sitting in 1×HBSS prior to addition of the compound test solution. Experimental Setup
The Beckman Biomek workstations were used to load the compounds and controls from the mother plates onto the cell plates that were prewashed with HBSS under sterile conditions. The plates were incubated in the upper HTS incubator at 37° C. in 5% CO2 for exactly 16 hrs. The following day, using the Beckman Biomek workstations, the plates were removed from the incubator. Using Cell Tracker Addition, the compounds were removed from the plates, washed once with […] of pre-warmed 1×HBSS and then 100 μL of 5 μM Cell Tracker Green was added to each well. The plates were incubated at 37° C. for 30 min to allow the dye to enter the cell and be cleaved by the esterases. […]

Compound	pIC50 [1]	pIC50 [2]	pEC50 [3]
Cc1cc2c(c(C)c1O)CCC(CCCCl)(c1cccs1)O2 (stereo not shown) [2-(3-Chloro-propyl)-5,7-dimethyl-2-thiophen-2-yl-chroman-6-ol]		> 6.00	
Cc1c(C)c2c(c(-c3ccc(N(C)C)cc3)c1O)CCC(C)(C)O2 [5-(4-Dimethylamino-phenyl)-2,2,7,8-tetramethyl-chroman-6-ol]			> 5.30
Cc1c(C)c2c(c(-c3ccccc3)c1O)CCC(C)(C)O2 [2,2,7,8-Tetramethyl-5-phenyl-chroman-6-ol]			> 5.30
CC(=CCc1c(O)c(C)c(C)c2c1CCC(C)(C)O2)CCCl [5-(5-Chloro-3-methyl-pent-2-enyl)-2,2,7,8-tetramethyl-chroman-6-ol]		> 6.00	
Cc1c(C)c2c(c(-c3ccncc3)c1O)CCC(C)(C)O2 [2,2,7,8-Tetramethyl-5-pyridin-4-yl-chroman-6-ol]			> 5.30
Cc1c(C)c2c(c(-c3ccc(S(C)(=O)=O)cc3)c1O)CCC(C)(C)O2 [5-(4-Methanesulfonyl-phenyl)-2,2,7,8-tetramethyl-chroman-6-ol]			> 5.30
COCOc1cc2c(c(C)c1C)OC(C)(CCC=C1SC(=O)NC1=O)CC2 (stereo not shown) [5-[3-(6-Methoxymethoxy-2,7,8-trimethyl-chroman-2-yl)-propylidene]-thiazolidine-2,4-dione]			> 5.30
CCCC1=NN(C)C(=O)C1=Cc1c(O)c(C)c(C)c2c1CCC(C)(C)O2 [4-(6-Hydroxy-2,2,7,8-tetramethyl-chroman-5-ylmethylene)-2-methyl-5-propyl-2,4-dihydro-pyrazol-3-one]			> 5.30

More lines, main results first:

pIC50 [1]	pIC50 [2]	Compound	pEC50 [3]
> 6.00		Cc1c(C)c2c(c(-c3ccc(C(C)(C)C)cc3)c1O)CCC(C)(C)O2 [5-(4-tert-Butyl-phenyl)-2,2,7,8-tetramethyl-chroman-6-ol]	
> 6.00		Cc1c(C)c2c(c(-c3ccc(Cl)cc3)c1O)CCC(C)(C)O2 [5-(4-Chloro-phenyl)-2,2,7,8-tetramethyl-chroman-6-ol]	
	> 6.00	Cc1cc(C2(C)CCc3c(C)c(O)c(C)c(Cl)c3O2)c(C)s1 (stereo not shown) [8-Chloro-2-(2,5-dimethyl-thiophen-3-yl)-2,5,7-trimethyl-chroman-6-ol]	
	> 6.00	Cc1c(C)c2c(c(Cl)c1O)CCC(C)(c1cccs1)O2 (stereo not shown) [5-Chloro-2,7,8-trimethyl-2-thiophen-2-yl-chroman-6-ol]	
> 6.00	> 6.00	Cc1c(C)c2c(c(C)c1O)CCC(C)(C=C(Cl)Cl)O2 (stereo not shown) [2-(2,2-Dichloro-vinyl)-2,5,7,8-tetramethyl-chroman-6-ol]	
> 6.00		Cc1c(O)cc(-c2c(O)c(C)c(C)c3c2CCC(C)(C)O3)c(O)c1C [5-(6-Hydroxy-2,2,7,8-tetramethyl-chroman-5-yl)-2,3-dimethyl-benzene-1,4-diol]	
> 6.00		COc1cc(-c2c(O)c(C)c(C)c3c2CCC(C)(C)O3)cc(OC)c1OC [2,2,7,8-Tetramethyl-5-(3,4,5-trimethoxy-phenyl)-chroman-6-ol]	

Source: patent US8791155B2, “Chroman derivatives” (Edison Pharmaceuticals, Inc., priority 2003, dated 2014)
